Data set [1] is described as follows: Body weight and death of nude mice bearing U-87MG (toxicity and side effect). Particulars: for weight loss of nude mice: 50 and 100 mg/kg intraperitoneally once daily, 17 days. How it is done:
LI-87MG Cells were inoculated subcutaneously in right axillary fossa of nude mice with 5×10^6 cells per mouse. After the xenografted tumor was formed, it was passed three generations in nude mice and then used. Tumor tissue in productive phase was cut into nubs of about 1.5 mm^3 and inoculated subcutaneously in right axillary fossa of the nude mice in a sterile condition. The diameters of the xenografted tumors were measured by a vernier caliper. […] The administration was performed once daily and lasted for 17 days. At the same time, the negative group was administered with equivalent physiological saline.
wherein, CVt was tumor volume in control group measured at a given time point, CV0 was tumor volume in control group measured before grouping and treatment, TVt was tumor volume in treatment group measured at a given time point, and TV0 was tumor volume in treatment group measured before grouping and treatment. The significant differences between the treated and control groups were evaluated using t-test. At the same time, body weight of nude mice in each group was measured twice a week to preliminarily evaluate the toxicity and side effect of compound.

In data set [2] the test system is Human Glioblastoma Cells U-87MG Xenograft. Briefly: Tumor growth in human glioblastoma U-87MG xenograft model of nude mice. It counts as in vivo. Particulars: for tumor growth inhibition (TGI): 17 days, end of treatment; for inhibitory action on the growth of transplanted tumor: at each administration dose (50, 100 mg/kg i.p. daily). How it is done:
The treatment group was administered intraperitoneally and daily with compound I-19 at various concentrations (50 mg/kg, 100 mg/kg) respectively.
The length (A) and width (B) of the tumor in mice were measured twice a week and tumor volume was calculated thereby as: V=A×B^2/2. Provided that Vt was the tumor volume measured at a given time point and V0 was the tumor volume measured before the mice were grouped and administered, tumor growth inhibition (TGI) was calculated as: […]

For data set [3], the target named is T1, TPR-Met (Homo sapiens, UniProt P08581).
T1 construct: therein no interference of Met's extracellular fragment, and the intracellular TPR-Met fused protein was expressed in cytoplasm; expressed in transfected cells; host or cells: NIH3T3/TPR-Met cells (mouse fibroblasts expressing TPR-Met); the other entry of the earlier key: TPR (P12270, Nucleoprotein TPR)
T1 sequence (P08581 with tags, fused parts or gaps): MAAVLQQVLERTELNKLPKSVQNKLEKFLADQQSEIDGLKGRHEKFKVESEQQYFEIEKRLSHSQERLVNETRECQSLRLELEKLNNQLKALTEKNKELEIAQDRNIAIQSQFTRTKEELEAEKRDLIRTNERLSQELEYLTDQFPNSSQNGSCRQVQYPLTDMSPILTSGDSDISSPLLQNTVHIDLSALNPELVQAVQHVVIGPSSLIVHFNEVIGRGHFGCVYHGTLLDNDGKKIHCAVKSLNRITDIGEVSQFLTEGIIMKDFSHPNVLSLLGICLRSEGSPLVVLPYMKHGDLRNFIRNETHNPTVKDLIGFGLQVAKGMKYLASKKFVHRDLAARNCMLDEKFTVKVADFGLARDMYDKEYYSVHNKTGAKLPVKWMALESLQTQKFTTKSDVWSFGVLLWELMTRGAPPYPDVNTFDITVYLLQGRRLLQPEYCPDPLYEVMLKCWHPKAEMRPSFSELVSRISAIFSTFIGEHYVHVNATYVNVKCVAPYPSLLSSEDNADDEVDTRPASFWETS
Put plainly: TPR-Met phosphorylation in NIH3T3/TPR-Met cells (Western blot). In kind it is cell-based. The settings on record: 0.01 μM, 6 h. For orientation: A western blot detects proteins with antibodies after separation by electrophoresis.
Description: NIH3T3/TPR-Met cells (in such cells, therein no interference of Met's extracellular fragment, and the intracellular TPR-Met fused protein was expressed in cytoplasm and could be activated continuously independent of HGF) were inoculated on a 12-well plate. After fusion degree reached 80%, the cells were treated with indicated concentration of corresponding compounds and SU11274 for 6 h at 37° C., collected and washed once by cold PBS (containing 1 mM sodium vanadate), and lysed with 1×SDS gel loading buffer (50 mM Tris-HCl (pH 6.8), 100 mM DTT, 2% SDS, 10% glycerin, 1 mM sodium vanadate, and 0.1% bromophenol blue). The lysate was heated in a boiling-water bath for 10 min and then centrifuged (12000 rpm) at 4° C. for 10 min.
The supernatant was subjected to SDS-PAGE electrophoresis and the protein was transferred to nitrocellulose membranes (Amersham Life Sciences, Arlington Heights, Ill., USA) by a Semi-Dry Electroblotting System. […] The membrane was washed three times by TBS/T containing 1 mM of sodium vanadate, 15 min for each time, and then placed in a solution of secondary antibody (1:2000) at room temperature for 1-2 hours. After the membranes were washed 3 times as above, they were dyed with an ECL reagent, exposed and developed.
The nitrocellulose membranes were placed in Reblot™ solution of Chemicon co. […]

Data set [4] has as its target c-Met tyrosine kinase (Homo sapiens, UniProt P08581). Put plainly: c-Met kinase activity on molecular level (ELISA, Poly(Glu,Tyr)4:1 substrate). In kind it is biochemical. The settings on record: ATP 5 μM, 37° C., 1 h. How it is done:
Poly(Glu, Tyr)4:1 as an enzyme substrate was diluted by potassium ion-free PBS (10 mM, sodium phosphate buffer, 150 mM NaCl, pH7.2-7.4) into a solution of 20 μg/ml. […] After the liquid in wells was removed, the plate was washed three time by T-PBS (PBS solution containing 0.1% Tween-20) at 200 μl/well, 5 min for each time. The ELISA plate was then dried in an oven at 37° C. for 1-2 h.
Each well was added with 50 μL of ATP solution diluted by reaction buffer (50 mM HEPES pH 7.4, 50 mM MgCl2, 0.5 mM MnCl2, 0.2 mM Na3VO4, 1 mM DTT) at a final concentration of 5 μM. Compound diluted by 1% DMSO into a suitable concentration was added at 10 μl/well and then c-Met tyrosine kinase protein diluted by 40 μl of reaction buffer was added. The plate was placed on a shaking table (100 rpm) at 37° C. and incubated for 1 h, and then washed three times by T-PBS. For each assay, triplicate wells without enzyme were used as blank control and wells having the corresponding DMSO concentration without compound were used as negative control. Primary antibody PY99 (p-Tyr (PY99), Cell Signaling Technology, 1:1000 diluted in 5 mg/mL BSA T-PBS) was added at 100 μl/well. The plate was then placed on a shaking table at 37° C. and incubated for 0.5 h, and washed by T-PBS. Secondary antibody horseradish peroxidase-conjugated goat anti-mouse IgG (1:2000 diluted in 5 mg/mL BSA T-PBS) was added at 100 μl/well. The plate was then placed on a shaking table at 37° C. for 0.5 h and washed three times by T-PBS. 2 mg/mL of OPD developer (diluted by a 0.1M citric acid-sodium citrate buffer (pH=5.4) containing 0.03% of H2O2) was added at 100 μl/well, and the plate was kept in dark at 25° C. for 1-10 min. OPD was ultrasonically dissolved and the developer solution was prepared just before use. 2 M of H2SO4 was added at 50 μl/well to stop the reaction. The plate was read using a wavelength regulated multi-well spectrophotometer (SPECTRA MAX 190) at 490 nm.
The inhibition rate was calculated according to the following equation:
Inhibition rate (%)=(1−(ODcompound−ODblank)/(ODnegative−ODblank))×100%
IC50 value was calculated through a four-parameter fit according to the inhibition curve.
On the technique in general: In an ELISA, binding on a coated surface is turned into a signal by an enzyme label.

Data set [5] relates to NIH3T3/TPR-Met cells. Put plainly: Cell proliferation mediated by c-Met, SRB assay, NIH3T3/TPR-Met cells. It counts as cell-based. The settings on record: 72 h. How it is done: Three concentrations were set, and for each concentration, the test was carried out in triplicate wells. 72 h later, the culture medium was removed. The residue was fixed by precooled 10% TCA at 4° C. for 1 h, washed by distilled water for 5 times and dried at room temperature. […] The excess dye was removed by washed with 1% glacial acetic acid for 5 times and dried in air. At last, 150 μL of Tris-HCL solution (10 mM Tris, pH 10.0) was added to each well.

The test system of data set [6] is NIH3T3 background cells. Briefly: Cell proliferation, SRB assay, NIH3T3 background cells as control. It counts as cell-based. Particulars: 72 h. The procedure: NIH3T3/TPR-Met cells in the logarithmic growth phase and NIH3T3 background cells were seeded in a 96-well microcuture plate at 90111_, per well and cultivated overnight, followed by addition of 104 of the compound at different concentrations. Three concentrations were set, and for each concentration, the test was carried out in triplicate wells. 72 h later, the culture medium was removed. The residue was fixed by precooled 10% TCA at 4° C. for 1 h, washed by distilled water for 5 times and dried at room temperature. After that, 4 mg/mL of sulforodamine B (SRB) in 1% glacial acetic acid was added to each well (1004 per well) for staining at room temperature for 15 min. The excess dye was removed by washed with 1% glacial acetic acid for 5 times and dried in air. At last, 150 μL of Tris-HCL solution (10 mM Tris, pH 10.0) was added to each well. OD values were measured on a multi-well spectrophotometer at […].

[7] abbreviates: 100 mg/kg intraperitoneally once daily.
Where [8] appears, read: 50 mg/kg intraperitoneally once daily.

pIC50: −log10 of the molar value.

The text below walks through data of patent publication US20130324542A1, “[1,2,4]TRIAZOLO[4,3-B][1,2,4]TRIAZINE COMPOUNDS, PREPARATION METHOD AND USE THEREOF” (SHANGHAI INSTITUTE OF MATERIA MEDICA, CHINESE ACADEMY OF …, priority 2010, published 2013).

c-Met tyrosine kinase, sequence (P08581 25-1390): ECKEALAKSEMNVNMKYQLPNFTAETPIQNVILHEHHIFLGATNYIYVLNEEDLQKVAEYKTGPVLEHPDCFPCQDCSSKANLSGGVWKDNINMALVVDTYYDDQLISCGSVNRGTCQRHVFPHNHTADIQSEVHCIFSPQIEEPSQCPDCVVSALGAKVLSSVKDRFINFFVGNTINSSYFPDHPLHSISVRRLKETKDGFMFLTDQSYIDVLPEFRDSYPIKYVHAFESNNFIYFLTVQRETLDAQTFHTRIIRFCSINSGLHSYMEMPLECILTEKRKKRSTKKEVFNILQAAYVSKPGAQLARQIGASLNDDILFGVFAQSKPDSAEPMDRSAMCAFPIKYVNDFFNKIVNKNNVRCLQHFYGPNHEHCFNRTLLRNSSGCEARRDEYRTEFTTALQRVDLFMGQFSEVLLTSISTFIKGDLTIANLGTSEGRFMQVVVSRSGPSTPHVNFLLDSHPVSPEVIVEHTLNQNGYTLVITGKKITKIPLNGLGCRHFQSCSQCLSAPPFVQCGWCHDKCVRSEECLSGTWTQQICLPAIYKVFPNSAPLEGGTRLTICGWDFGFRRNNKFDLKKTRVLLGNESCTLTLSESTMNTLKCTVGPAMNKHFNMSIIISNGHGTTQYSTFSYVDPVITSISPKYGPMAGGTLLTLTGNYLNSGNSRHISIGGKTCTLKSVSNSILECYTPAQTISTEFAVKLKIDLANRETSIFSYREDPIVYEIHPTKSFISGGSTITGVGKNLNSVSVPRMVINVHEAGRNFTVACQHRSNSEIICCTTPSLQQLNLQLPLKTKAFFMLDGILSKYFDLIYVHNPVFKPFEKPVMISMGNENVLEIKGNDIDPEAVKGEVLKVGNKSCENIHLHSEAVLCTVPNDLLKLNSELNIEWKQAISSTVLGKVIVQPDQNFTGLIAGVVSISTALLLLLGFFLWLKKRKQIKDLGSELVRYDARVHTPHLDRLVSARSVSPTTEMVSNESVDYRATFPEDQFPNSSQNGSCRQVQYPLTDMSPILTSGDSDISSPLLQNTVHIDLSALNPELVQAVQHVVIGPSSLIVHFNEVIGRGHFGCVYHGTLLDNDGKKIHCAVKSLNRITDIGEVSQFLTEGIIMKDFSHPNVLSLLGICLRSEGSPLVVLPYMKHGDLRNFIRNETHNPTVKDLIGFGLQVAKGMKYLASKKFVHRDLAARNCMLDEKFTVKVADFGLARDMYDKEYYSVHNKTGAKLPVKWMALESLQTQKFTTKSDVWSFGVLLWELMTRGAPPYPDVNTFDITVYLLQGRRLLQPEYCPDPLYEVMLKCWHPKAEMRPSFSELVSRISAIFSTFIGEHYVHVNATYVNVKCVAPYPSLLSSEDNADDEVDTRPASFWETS

Turning to `Cn1cc(-c2cnc3nnc(C(F)(F)c4ccc5ncccc5c4)n3n2)cn1` [Compound I-19, 3-[(6-quinolyl)difluoromethyl]-6-[(1-methyl)-4-pyrazolyl]-[1,2,4]triazolo[4,3-b][1,2,4]triazine], the death of mice result in data set [1] (setting [7]) was “one mouse died on the 9th day”. Further, in data set [1], the “weight loss of nude mice” value is listed as “No mouse in I-19 or JNJ-38877605 treated group show obvious weight loss”. The figures for the “tumor growth inhibition (TGI)” value in data set [2] (setting [8]) and in data set [2] (setting [7]) were 83.9% and 95.3%, respectively. Moreover, the “inhibitory action on the growth of transplanted tumor” value in data set [2] was “significantly inhibitory action”.

By pIC50 is commonly meant −log10 of the IC50, conventionally taken in molar units. Read a low pIC50 as a high IC50. For `Cn1cc(-c2ccc3nnc(C(F)(F)c4ccc5ncccc5c4)n3n2)cn1` [JNJ-38877605, reference compound], the “c-Met phosphorylation in NIH3T3/TPR-Met cells” value in data set [3] is “less potency”. Moreover, the “weight loss of nude mice” value in data set [1] is given as “No mouse in I-19 or JNJ-38877605 treated group show obvious weight loss”. In data set [4], this compound gave a pIC50 of 9.02. Moreover, the results for the “tumor growth inhibition (TGI)” value in data set [2] (setting [8]) and in data set [2] (setting [7]) were 101.4% and 106.9%, respectively. Moreover, the “inhibitory action on the growth of transplanted tumor” value in data set [2] was “significantly inhibitory action”. For the same compound, the entries for the “inhibition rate (%) on proliferation of NIH3T3/TPR-Met cells” value in data set [5] (1 μM), in data set [5] (10 μM) and in data set [5] (50 μM) were 70.8%, 72.2% and 77.3%, respectively. Also, the “inhibition rate (%) on proliferation of NIH3T3 background cells” value in data set [6] (1 μM) was found to be 16.0%; in data set [6] (10 μM) it was 15.1%; in data set [6] (50 μM) it was 25.7%.
